Laboratory results: patent publication US20180186968A1, “AGENT FOR SUPPRESSING ODORS OF POLYSULFIDE COMPOUNDS” (KAO CORPORATION, priority 2015, published 2018)

Experiments:
[1] = molecular target: T1, olfactory receptor OR4S2 (Homo sapiens, UniProt Q8NH73); experiment: Luciferase reporter gene assay: suppression of OR4S2 response to DMDS or DMTS by test substance (OR4S2 antagonist search); type: cell-based; conditions: for response of OR4S2 to DMDS in the presence of test substance (Response %): DMDS 1 mM, test substance 0 to 3000 μM, FIG. 4; for response of OR4S2 to DMTS in the presence of test substance (Fold increase): DMTS 300 μM, test substance 100 μM, FIG. 5
T1 construct: Flag-Rho tag (N); expressed in transfected cells; host or cells: HEK293
T1 sequence (Q8NH73 1-311): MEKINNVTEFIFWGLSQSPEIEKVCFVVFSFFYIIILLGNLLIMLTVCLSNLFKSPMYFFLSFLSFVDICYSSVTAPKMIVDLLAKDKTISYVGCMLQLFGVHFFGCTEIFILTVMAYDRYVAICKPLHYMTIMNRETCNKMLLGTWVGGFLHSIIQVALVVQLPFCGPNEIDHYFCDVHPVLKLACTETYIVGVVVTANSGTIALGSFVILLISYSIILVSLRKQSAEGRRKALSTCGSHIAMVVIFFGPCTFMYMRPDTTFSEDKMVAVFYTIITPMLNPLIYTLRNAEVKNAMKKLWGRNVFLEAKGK
Method: By using the same procedure as in Example 1 (1) to (3), HEK293 cells expressing OR4S2 (SEQ ID NO: 1) were prepared. The response of the olfactory receptor to DMDS (the value fLuc/hRluc) was measured in the presence and absence of a test substance by using luciferase reporter gene assay in accordance with the procedure in Example 1 (4). The value fLuc/hRluc induced by a stimulus of single DMDS, (X), the value fLuc/hRluc for cells without a stimulus of DMDS, (Y), and the value fLuc/hRluc induced by a co-stimulus of DMDS and a test substance, (Z), were determined, and the intensity of the response (Response (%)) of the receptor to DMDS in the presence of a test substance was determined by using the following formula.
Response (%)=(Z−Y)/(X−Y)×100
The experiment s performed independently three times, and the average value of the experiments was determined. The concentration of DMDS to be added to a culture was set a 1 mM, and the concentration of a test substance to be added was changed in the range of 0 to 3000 μM.
For the response to DMTS, the value fLuc/hRluc to a stimulus of single DMTS, (X′), was divided by the value fLuc/hRluc for cells without a stimulus of DMTS, (Y), and the calculated value, (X′/Y), was calculated as a value of the response to DMTS Fold increase). To compare the effect of a test substance on the response to DMTS, the value fLuc/hRluc induced by a co-stimulus of DMTS and a test substance, (Z′), was similarly divided by the value fLuc/hRluc for cells without a stimulus, (Y), to calculate (Z′/Y) as Fold increase. The experiment was performed independently three times, and the average value of the experiments was determined. The concentration of DMTS to be added to a culture was set at 300 μM, and the concentration of a test substance to be added set at 100 μM.

[2] = Sensory test of odor-suppressing effect for polysulfide compounds; type: in vivo, human; conditions: for odor intensity of DMTS (sensory evaluation): 0.01% (v/v) DMTS and 0.1% (v/v) test substance in mineral oil, 11 evaluators, FIG. 7; for odor intensity of DMDS (sensory evaluation): 0.1% (v/v) DMDS and 0.1% (v/v) test substance in mineral oil, 10 evaluators, FIG. 6
Method: The odor-suppressing effect of each of trimethylhexyl aldehyde (THA), cis-4-heptenal, and 1,4-cineol, as the OR4S2 antagonists identified in Example 2, for polysulfide compounds was checked in a sensory test.
For each of DMDS, THA, cis-4-heptenal, and 1,4-cineol, a 0.1% (v/v) solution in mineral oil was prepared. For DMTS, a 0.01% (v/v) solution in mineral oil was prepared. Two cotton balls were put in 20 mL glass bottle (Maruemu Corporation, No. 6), and one cottonball was impregnated with 30 μL of the DMDS or DMTS solution, and the other cotton ball was impregnated with 30 μL of a solution of one of the three OR4S2 antagonists. The glass bottle containing the cotton balls was covered with a lid, and left to stand at 37° C. for 1 hour, and thereafter used as a test sample for a sensory test. Glass bottles containing only cotton ball impregnated with the DMDS or DMTS solution were prepared as reference samples, and a glass bottle containing only cotton ball impregnated with mineral oil (Vehicle) was prepared as a control sample.
A sensory test was performed in a single-blinded mode with 10 evaluators for DMDS and 11evaluators for DMTS. The test was initiated after two o'clock pm, which was 1.5 hours or longer after a meal. To prevent diffusion of a smell, the test was performed essentially under a fume hood. To eliminate the influence of adaptation to odors of polysulfide compounds, the evaluators were appropriately checked for the intensity of recognition to the odor of DMDS or DMTS in the test, and rested as necessary. The evaluators were separated into two groups, and one group evaluated the odor-suppressing effect for DMDS or DMTS with respect to THA, cis-4-heptenal, and 1,4-cineol, in the presented, and the other group evaluated in with respect to 1,4-cineol, cis-4-heptenal, and THA, in the order presented. Each test sample was replaced with another one after evaluation by each of three evaluators.
In evaluation of odors of test samples, the following criteria in five grades were set for each evaluator; “odor of DMDS (or DMTS) was 1: unidentifiable, 2: perceivable, 3: easily identifiable, 4: strong, 5: intolerably strong”, and the evaluators rated the odor intensity of DMDS (or DMTS) for each test sample in nine grades from 1.0 to 5.0 at an interval of 0.5, where the odor intensity of single DMDS (or DMTS) was assumed as 3. The average value of the evaluation results by the evaluators was determined.

[3] = molecular target: T1, olfactory receptor OR4S2; experiment: Luciferase reporter gene assay: response of olfactory receptor to sulfur compounds; type: cell-based; conditions: for response of olfactory receptor OR4S2 to polysulfide compound (fold increase): 100 μM polysulfide compound, 428 olfactory receptors measured, HEK293 cells, FIG. 1; for response of OR4S2 at different concentrations: HEK293 cells expressing OR4S2, FIG. 2
From the text: A human olfactory receptor cloned using the PCR method with human genomic DNA (G1521:Promega Corporation) as a template on the basis of sequence information registered in GenBank. Each gene amplified through the PCR method was incorporated into a pENTR vector (Invitrogen) in accordance with the manual, and recombined, by utilizing the NotI and AscI sites present in the pENTR vector, with a pME18S vector at the NotI and AscI sites produced in the downstream of he Flag-Rho tag sequence of the pME18S vector. • (2) Preparation of pME18S-human RTP1S Vector
A vector expressing receptor-transporting protein (RTP), a protein which promotes the expression of an olfactory receptor polypeptide on the cell membrane, was prepared. Specifically, a gene encoding human RTP1S (GI: 50234917) was incorporated into a pME18S vector at the EcoRI and XhoI sites thereof. • (3) Preparation of Olfactory Receptor-expressing Cells
HEK293 cells expressing any one of human olfactory receptors were produced. A reaction solution with a composition shown in Table 2 was prepared and left to stand in a clean bench for 15 minutes, and then added to each well of a 96-well plate (BD Biosciences). Subsequently, 90 μL of HEK293 cells (3×10^5 cells/cm^2) was seeded in each well, and cultured in an incubator retained at 37° C. and 5% CO2 for 24 hours. As a control, cells with conditions for no expression of an olfactory receptor (Mock) were prepared and used in an experiment.
An olfactory receptor expressed on HEK293 cells increases the intracellular cAMP level through conjugation with the intracellular Gas followed by resulting activation of adenylate cyclase. For smell response measurement in this study, luciferase reporter gene assay was used in which increase of the intracellular cAMP level is monitored as an emission value derived from a firefly luciferase gene (fluc2P-CRE-hygro). Transgenesis was simultaneously performed by using a product with a sea pansy luciferase gene fused to the downstream of the CMV promoter (hRluc-CMV), and the resultant was used as an internal standard to correct errors of transgenesis efficiency and the number of cells.
The medium was removed from the culture prepared in the above(3), and 75 μL of a solution containing a polysulfide compound prepared with DMEM (NACALAI TESQUE, INC.) was added. The polysulfide compound was 100 μM of dimethyl disulfide (DMDS) or dimethyl trisulfide (DMTS). The cells were cultured in a CO2 incubator for 3 hours to allow the luciferase gene to be sufficiently expressed in the cells. Measurement of the activity of luciferase was performed by using a Dual-Glo (TM) luciferase assay system (Promega Corporation) in accordance with an operation manual of the product. For each stimulus condition, the value fLuc/hRluc was calculated by dividing the emission value derived from sea pansy luciferase. The value fLuc/hRluc derived from firefly luciferase and induced by a stimulus of a polysulfide compound was divided by the value fLuc/hRluc for cells without a stimulus of a polysulfide compound to calculate a fold increase, and the fold increase was used as an indicator of intensity of response. • (5) Results

## CC(C)C12CCC(C)(CC1)O2 [1,4-cineol, 1,4-Cineole]
[1]
  response of OR4S2 to DMDS in the presence of test substance (Response %): suppressed the response of OR4S2 to DMDS in a concentration-dependent manner
  response of OR4S2 to DMTS in the presence of test substance (Fold increase): suppressed the response of OR4S2 to DMTS
[2]
  odor intensity of DMTS (sensory evaluation): suppressed the odor intensity
  odor intensity of DMDS (sensory evaluation): suppressed the odor intensity

## CSSC [DMDS, Dimethyl disulfide]
[3]
  response of olfactory receptor OR4S2 to polysulfide compound (fold increase): exhibits a specific response
  response of OR4S2 at different concentrations: concentration-dependent manner

## CSSSC [DMTS, Dimethyl trisulfide]
[3]
  response of olfactory receptor OR4S2 to polysulfide compound (fold increase): exhibits a specific response
  response of OR4S2 at different concentrations: concentration-dependent manner

## CC(CC=O)CC(C)(C)C (stereo not drawn) [Trimethylhexyl aldehyde, 3,5,5-Trimethylhexanal]
[1]
  response of OR4S2 to DMDS in the presence of test substance (Response %): suppressed the response of OR4S2 to DMDS in a concentration-dependent manner
  response of OR4S2 to DMTS in the presence of test substance (Fold increase): suppressed the response of OR4S2 to DMTS
[2]
  odor intensity of DMTS (sensory evaluation): suppressed the odor intensity
  odor intensity of DMDS (sensory evaluation): suppressed the odor intensity

## CCCCOC(=O)C(C)CC (stereo not drawn) [butyl 2-methylbutanoate, Butyl 2-methylbutanoate]
[1]
  response of OR4S2 to DMDS in the presence of test substance (Response %): suppressed the response of OR4S2 to DMDS in a concentration-dependent manner
  response of OR4S2 to DMTS in the presence of test substance (Fold increase): suppressed the response of OR4S2 to DMTS

## CC/C=C\CCC=O [cis-4-heptenal, (Z)-Hept-4-enal]
[1]
  response of OR4S2 to DMDS in the presence of test substance (Response %): suppressed the response of OR4S2 to DMDS in a concentration-dependent manner
  response of OR4S2 to DMTS in the presence of test substance (Fold increase): suppressed the response of OR4S2 to DMTS
[2]
  odor intensity of DMTS (sensory evaluation): suppressed the odor intensity
  odor intensity of DMDS (sensory evaluation): suppressed the odor intensity

## C=C(C)[C@H]1CC=C(C)CC1 [dipentene, Dipentene]
[1]
  response of OR4S2 to DMDS in the presence of test substance (Response %): suppressed the response of OR4S2 to DMDS in a concentration-dependent manner

## CS [methylmercaptan, Methylmercaptan]
[3]; 3 mm test substance, FIG. 3
  response of OR4S2 to methylmercaptan: did not respond

## CC1=CC=C(C(C)C)CC1 [α-terpinene, p-Mentha-1,3-diene]
[1]
  response of OR4S2 to DMDS in the presence of test substance (Response %): suppressed the response of OR4S2 to DMDS in a concentration-dependent manner
  response of OR4S2 to DMTS in the presence of test substance (Fold increase): suppressed the response of OR4S2 to DMTS

## (+)-Limonene oxide
[1]
  response of OR4S2 to DMDS in the presence of test substance (Response %): suppressed the response of OR4S2 to DMDS in a concentration-dependent manner
  response of OR4S2 to DMTS in the presence of test substance (Fold increase): suppressed the response of OR4S2 to DMTS
